From ChEMBL document CHEMBL1152354, “Design, synthesis and identification of novel colchicine-derived immunosuppressant” (Bioorg Med Chem Lett, 2009)
Activity calls are given as the source filed them. The rule behind the calls is not given here.

Assays:
Splenocyte [1] = test: Immunosuppressive activity in splenocytes assessed as inhibition of mixed lymphocyte reaction; format: functional, cell-based
Splenocyte [2] = test: Immunosuppressive activity in mouse splenocytes assessed as inhibition of allogenic mixed lymphocyte reaction; format: functional, cell-based
Splenocyte [3] = test: Ratio of IC50 of drug to IC50 of cyclosporin A for immunosuppressive activity in mouse splenocytes assessed as inhibition of allogenic mixed lymphocyte reaction; format: functional
[4] = Immunosuppressive activity in concanavalin A-activated T cell assessed as inhibition of lymphoproliferation after 3 days by beta-scintillation counting; format: functional, cell-based
[5] = Immunosuppressive activity in LPS-activated B lymphocyte assessed as inhibition of lymphoproliferation after 3 days by beta-scintillation counting; format: functional
RAW264.7 [6] = test: Cytotoxicity against mouse RAW264.7 cells at 0.01 to 10 uM; format: cell-based; conditions: raw264.7, 10 µM
Mus musculus = test: Immunosuppressive activity in BALB/c mouse skin allografted C57BL/6 mouse assessed as survival of allograft skin at 1 mg/kg, ip administered daily; format: functional; conditions: route intraperitoneal
[7] = Antiproliferative activity against rat H42E cells assessed as cell number; format: cell-based
[8] = Cytotoxicity against rat H42E cells assessed as intracellular ATP level; format: cell-based; conditions: read-out: TC50 (the source's name)
[9] = Cytotoxicity against rat H42E cells assessed as release of alpha-glutathione S transferase; format: cell-based; conditions: read-out: TC50 (the source's name)
[10] = Cytotoxicity against rat H42E cells assessed as alteration in mitochondrial function by MTT assay; format: cell-based; conditions: read-out: TC50 (the source's name)
RAW264.7 [11] = test: Immunosuppressive activity in mouse RAW264.7 cells assessed as inhibition of LPS-induced NO production; format: functional, cell-based
RAW264.7 [12] = test: Immunosuppressive activity in mouse RAW264.7 cells assessed as inhibition of LPS-induced iNOS expression; format: functional, cell-based
RAW264.7 [13] = test: Immunosuppressive activity in mouse RAW264.7 cells assessed as inhibition of LPS-induced iNOS expression at 0.01 to 10 uM; format: functional, cell-based
RAW264.7 [14] = test: Immunosuppressive activity in mouse RAW264.7 cells assessed as inhibition of LPS-induced TNFalpha expression level in at 0.01 to 10 uM; format: functional, cell-based
RAW264.7 [15] = test: Immunosuppressive activity in mouse RAW264.7 cells assessed as inhibition of LPS-induced NO production at 0.01 to 10 uM; format: functional, cell-based
[16] = Mus musculus, Splenocyte, read-out: IC50

IC50 (Splenocyte [1]; [16]) [nM] | IC50 (Splenocyte [2]) [nM] | Structure (SMILES) | also measured
58 | – | COc1cc2c(c(OC)c1OC)-c1ccc(SC)c(=O)cc1[C@@H](NC(=O)c1cccc(CO[N+](=O)[O-])c1C#N)CC2 | –
89 | – | COc1cc2c(c(OC)c1OC)-c1ccc(SC)c(=O)cc1[C@@H](NC(=O)c1cc(CO[N+](=O)[O-])ccc1Br)CC2 | –
700 | – | COc1cc2c(c(OC)c1OC)-c1ccc(SC)c(=O)cc1[C@@H](NC(=O)c1cccc(CO[N+](=O)[O-])c1OC)CC2 | –
55 | – | COc1cc2c(c(OC)c1OC)-c1ccc(SC)c(=O)cc1[C@@H](NC(=O)c1ccc([N+](=O)[O-])c(CO[N+](=O)[O-])c1)CC2 | –
103 | – | COc1cc2c(c(OC)c1OC)-c1ccc(SC)c(=O)cc1[C@@H](NC(=O)c1cc(CO[N+](=O)[O-])ccc1I)CC2 | –
290 | – | COc1cc2c(c(OC)c1OC)-c1ccc(SC)c(=O)cc1[C@@H](NC(=O)c1cc(CO[N+](=O)[O-])ccc1C#N)CC2 | –
68 | – | COc1cc2c(c(OC)c1OC)-c1ccc(SC)c(=O)cc1[C@@H](NC(=O)c1ccc(I)c(CO[N+](=O)[O-])c1)CC2 | –
85 | – | COc1cc2c(c(OC)c1OC)-c1ccc(SC)c(=O)cc1[C@@H](NC(=O)c1cccc(CO[N+](=O)[O-])c1I)CC2 | –
15 | – | COc1ccc(C(=O)N[C@H]2CCc3cc(OC)c(OC)c(OC)c3-c3ccc(SC)c(=O)cc32)cc1CO[N+](=O)[O-] | –
50 | – | COc1cc2c(c(OC)c1OC)-c1ccc(SC)c(=O)cc1[C@@H](NC(=O)c1ccc(Cl)c(CO[N+](=O)[O-])c1)CC2 | CC50 [7]: 300000 nM; CC50 [8]: 300000 nM; CC50 [9]: 300000 nM; CC50 [10]: 300000 nM
54 | – | COc1cc2c(c(OC)c1OC)-c1ccc(SC)c(=O)cc1[C@@H](NC(=O)c1ccc(-c3ccccc3)c(CO[N+](=O)[O-])c1)CC2 | –
4 | – | COc1cc2c(c(OC)c1OC)-c1ccc(SC)c(=O)cc1[C@@H](NC(=O)c1cc(CO[N+](=O)[O-])ccc1Cl)CC2 | IC50 [4]: 392 nM
89 | – | COc1cc2c(c(OC)c1OC)-c1ccc(SC)c(=O)cc1[C@@H](NC(=O)c1ccc(Br)c(CO[N+](=O)[O-])c1)CC2 | –
61 | – | COc1cc2c(c(OC)c1OC)-c1ccc(SC)c(=O)cc1[C@@H](NC(=O)c1cccc(CO[N+](=O)[O-])c1Br)CC2 | –
49 | – | COc1cc2c(c(OC)c1OC)-c1ccc(SC)c(=O)cc1[C@@H](NC(=O)c1ccc(C#N)c(CO[N+](=O)[O-])c1)CC2 | –

Further lines, the compound ahead of its results:

Structure (SMILES) | IC50 (Splenocyte [1]; [16]) [nM] | IC50 (Splenocyte [2]) [nM] | also measured
COc1ccc(CO[N+](=O)[O-])cc1C(=O)N[C@H]1CCc2cc(OC)c(OC)c(OC)c2-c2ccc(SC)c(=O)cc21 | 78 | – | –
COc1cc2c(c(OC)c1OC)-c1ccc(SC)c(=O)cc1[C@@H](NC(=O)c1ccc(F)c(CO[N+](=O)[O-])c1)CC2 | 31 | – | –
COc1cc2c(c(OC)c1OC)-c1ccc(OC)c(=O)cc1[C@@H](NC(=O)c1ccc(CCl)cc1)CC2 | – | 320 | Ratio IC50 (Splenocyte [3]): 7
COc1cc2c(c(OC)c1OC)-c1ccc(SC)c(=O)cc1[C@@H](NC(=O)c1cccc(CO[N+](=O)[O-])c1-c1ccccc1)CC2 | 434 | – | –
COc1cc2c(c(OC)c1OC)-c1ccc(OC)c(=O)cc1[C@@H](N(C)C(=O)c1ccc(CO[N+](=O)[O-])cc1)CC2 | – | > 100000 | –
COc1cc2c(c(OC)c1OC)-c1ccc(OC)c(=O)cc1[C@@H](NC(=O)c1cccc(CCl)c1)CC2 | – | 6300 | –
COc1cc2c(c(OC)c1OC)-c1ccc(SC)c(=O)cc1[C@@H](NC(=O)c1cc(CO[N+](=O)[O-])ccc1-c1ccccc1)CC2 | – | – | IC50 (Splenocyte [1]; splenocyte): Not Active
COc1cc2c(c(OC)c1OC)-c1ccc(SC)c(=O)cc1[C@@H](NC(=O)c1cc(CO[N+](=O)[O-])ccc1F)CC2 | 4 | – | –
COc1cc2c(c(OC)c1OC)-c1ccc(SC)c(=O)cc1[C@@H](NC(=O)c1ccc(CO[N+](=O)[O-])cc1)CC2 | – | 20 | IC50 [4]: 392 nM; IC50 [5]: 349 nM
COc1cc2c(c(OC)c1OC)-c1ccc(OC)c(=O)cc1[C@@H](NC(=O)c1cccc(CO[N+](=O)[O-])c1)CC2 | – | 250 | Ratio IC50 (Splenocyte [3]): 25
COc1cc2c(c(OC)c1OC)-c1ccc(SC)c(=O)cc1[C@@H](NC(=O)c1cccc(CO[N+](=O)[O-])c1F)CC2 | 65 | – | –
COc1cc2c(c(OC)c1OC)-c1ccc(SC)c(=O)cc1[C@@H](NC(=O)CCCO[N+](=O)[O-])CC2 | – | 210 | Activity (RAW264.7 [6]): Non-toxic; IC50 [4]: 582 nM; IC50 [5]: 1 nM
COc1cc2c(c(OC)c1OC)-c1ccc(N(C)C)c(=O)cc1[C@@H](NC(=O)c1ccc(CO[N+](=O)[O-])cc1)CC2 | – | 2500 | –
COc1cc2c(c(OC)c1OC)-c1ccc(SC)c(=O)cc1[C@@H](NC(=O)c1cc(CO[N+](=O)[O-])ccc1[N+](=O)[O-])CC2 | 73 | – | –
COc1cc2c(c(OC)c1OC)-c1ccc(SC)c(=O)cc1[C@@H](NC(=O)c1cccc(CO[N+](=O)[O-])c1Cl)CC2 | 8 | – | Survival (Mus musculus): 12.3 days; IC50 [4]: 3 nM
COc1cc2c(c(OC)c1OC)-c1ccc(SC)c(=O)cc1[C@@H](NC(=O)c1cccc(CO[N+](=O)[O-])c1[N+](=O)[O-])CC2 | 9 | – | IC50 [4]: 7 nM
COc1cc2c(c(OC)c1OC)-c1ccc(OC)c(=O)cc1[C@@H](NC(=O)c1ccc(CO[N+](=O)[O-])cc1)CC2 | – | 70 | Ratio IC50 (Splenocyte [3]): 5
COc1cc2c(c(OC)c1OC)-c1ccc(SC)c(=O)cc1[C@@H](NC(=O)c1cccc(CO[N+](=O)[O-])c1)CC2 | 68 | 70 | Activity (RAW264.7 [11]): Dose-dependent effect; Activity (RAW264.7 [6]): Non-toxic; Activity (RAW264.7 [12]): Dose-dependent effect; IC50 [4]: 1 nM; inhibition (RAW264.7 [13]): inactive; inhibition (RAW264.7 [14]): Active; IC50 [5]: 1 nM; inhibition (RAW264.7 [15]): inactive
COc1cc2c(c(OC)c1OC)-c1ccc(OC)c(=O)cc1[C@@H](NC(C)=O)CC2 [COLCHICINE] | – | 2300 | IC50 [4]: 548 nM; IC50 [5]: 7.3 nM
COc1cc2c(c(OC)c1OC)-c1ccc(N(C)C)c(=O)cc1[C@@H](NC(=O)CCCO[N+](=O)[O-])CC2 | – | 6600 | –
COc1cc2c(c(OC)c1OC)-c1ccc(N(C)C)c(=O)cc1[C@@H](NC(=O)c1cccc(CO[N+](=O)[O-])c1)CC2 | – | 10000 | –
COc1cc2c(c(OC)c1OC)-c1ccc(OC)c(=O)cc1[C@@H](NC(=O)CCCCl)CC2 | – | 4700 | –
C/C=C/C[C@@H](C)[C@@H](O)[C@H]1C(=O)N[C@@H](CC)C(=O)N(C)CC(=O)N(C)[C@@H](CC(C)C)C(=O)N[C@@H](C(C)C)C(=O)N(C)[C@@H](CC(C)C)C(=O)N[C@@H](C)C(=O)N[C@H](C)C(=O)N(C)[C@@H](CC(C)C)C(=O)N(C)[C@@H](CC(C)C)C(=O)N(C)[C@@H](C(C)C)C(=O)N1C [CYCLOSPORINE] | – | – | Survival (Mus musculus): 11.8 days
COc1cc2c(c(OC)c1OC)-c1ccc(OC)c(=O)cc1[C@@H](N(C)C(=O)c1cccc(CO[N+](=O)[O-])c1)CC2 | – | > 100000 | –
COc1cc2c(c(OC)c1OC)-c1ccc(OC)c(=O)cc1[C@@H](N(C)C(=O)CCCO[N+](=O)[O-])CC2 | – | 3500 | –
COc1cc2c(c(OC)c1OC)-c1ccc(OC)c(=O)cc1[C@@H](NC(=O)CCCO[N+](=O)[O-])CC2 | – | 10 | Ratio IC50 (Splenocyte [3]): 470
